We go through 18 compounds from patent publication US8563550B2, “Imidazolothiadiazoles for use as protein kinase inhibitors” (Centro Nacional de Investigaciones Oncologicas (CNIO), priority 2007, dated 2013).

A word on the inhibition: it is the share of the control response that was lost under treatment.

The target in the first assay is T1, PIM-1 (Homo sapiens, UniProt P11309).
T1 construct: histidine tag (C); made in house
T1 sequence (P11309 whole entry): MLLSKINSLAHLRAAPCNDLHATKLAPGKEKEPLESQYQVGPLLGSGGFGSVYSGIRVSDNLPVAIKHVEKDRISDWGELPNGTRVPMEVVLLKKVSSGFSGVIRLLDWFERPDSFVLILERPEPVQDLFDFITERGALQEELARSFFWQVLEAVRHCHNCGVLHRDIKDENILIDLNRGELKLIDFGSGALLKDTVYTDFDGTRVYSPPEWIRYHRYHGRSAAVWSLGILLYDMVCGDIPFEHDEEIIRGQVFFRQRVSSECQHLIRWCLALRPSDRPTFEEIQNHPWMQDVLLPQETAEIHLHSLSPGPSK
The assay is described as follows: PIM-1 biochemical assay (ADP Hunter assay kit). Particulars: compound concentration 10 μM; approximate values. The source says: The biochemical assay to measure PIM-1 activity relies on the ADP Hunter assay kit (DiscoveRx Corp., Cat. #90-0077), that determines the amount of ADP as direct product of the kinase enzyme activity.
The enzyme has been expressed and purified in-house as a recombinant human protein with a C-terminal histidine tag. The protein is active and stable.
Assay conditions were as indicated by the kit manufacturers with the following adaptations for the kinase activity step: • Kinase assay buffer and assay volume stay as recommended (15 mM HEPES, pH 7.4, 20 mM NaCl, 1 mM EGTA, 0.02% Tween 20, 10 mM MgCl2 and 0.1 mg/ml bovine γ-globulins/75 μl assay volume) • Incubation time and temperature: 60 min at 30° C. • PIM-1 concentration: 50 pg/μl • ATP concentration: 100 μM • PIM-1 substrate peptide: PIMtide (ARKRRRHPSGPPTA) • Peptide concentration: 60 μM • Positive control for kinase activity inhibition: 1-10 μM Staurosporine • DMSO concentration have to stay below 2% during the kinase reaction
Assays were performed in either 96 or 384-well plates. The final outcome of the coupled reactions provided by the kit is the release of the fluorescent product Resorufin and has been measured with a multilabel HTS counter VICTOR V (PerkinElmer) using an excitation filter at 544 nm and an emission filter at 580 nm.
On to “4-{2-[(Furan-2-ylmethyl)-amino]-imidazo[2,1-b][1,3,4]thiadiazol-5-yl}-phenol [34(40)]”, for which the “Percentage Inhibition of PIM-1 at 10 μM” value was 100%.

For the compound `FC(F)(F)Oc1cccc(-c2cnc3sc(NCC4CC4)nn23)c1` [34(39), Cyclopropylmethyl-[5-(3-trifluoromethoxy-phenyl)-imidazo[2,1-b][1,3,4]thia-diazol-2-yl]-amine], the “Percentage Inhibition of PIM-1 at 10 μM” value is on record as 82%.

The same assay, now with this note: compound concentration 10 μM; approximate values; read-out: Percentage Inhibition of PIM-1 at 10 μM.
For the compound `CN(C)c1cccc(-c2cnc3sc(Oc4ccc(F)cc4)nn23)c1` [Example 15, {3-[2-(4-Fluoro-phenoxy)-imidazo[2,1-b][1,3,4]thiadiazol-5-yl]-phenyl}-dimethyl-amine], the inhibition at 10 µM was determined as 89%.

Regarding `COc1ccc(CNc2nn3c(-c4ccc(F)c(Cl)c4)cnc3s2)cc1` [34(33), [5-(3-Chloro-4-fluoro-phenyl)-imidazo[2,1-b][1,3,4]thiadiazol-2-yl]-(4-meth-oxybenzyl)-amine], the inhibition at 10 µM stood at 84%.

In the case of `Cc1cc(-c2cnc3sc(NCC4CC4)nn23)cc(C)c1O` [34(58), 4-[2-(Cyclopropylmethyl-amino)-imidazo[2,1-b][1,3,4]thiadiazol-5-yl]-2,6-dimethylphenol], the inhibition at 10 µM is 97%.

In the case of `COc1ccc(CNc2nn3c(-c4ccc5ccccc5c4)cnc3s2)cc1` [34(12), (4-Methoxy-benzyl)-(5-naphthalen-2-yl-imidazo[2,1-b][1,3,4]thiadiazol-2-yl)-amine], the inhibition at 10 µM came out at 58%.

Regarding `Oc1ccc(-c2cnc3sc(Nc4ccc(F)cc4)nn23)cc1` [Example 18, 4-[2-(4-Fluoro-phenylamino)-imidazo[2,1-b][1,3,4]thiadiazol-5-yl]-phenol], the inhibition at 10 µM amounted to 82%.

`CC(=O)c1cccc(-c2cnc3sc(NCc4cccs4)nn23)c1` [34(22), 1-(3-{2-[(Thiophen-2-ylmethyl)-amino]-imidazo[2,1-b][1,3,4]thiadiazol-5-yl}-phenyl)-ethanone]: the inhibition at 10 µM was determined as 82%.

As to `CC(C)CNc1nn2c(-c3cccc(N(C)C)c3)cnc2s1` [34(3), [5-(3-Dimethylamino-phenyl)-imidazo[2,1-b][1,3,4]thiadiazol-2-yl]-isobutyl-amine], the inhibition at 10 µM is 97%.

For the compound `COCCNc1nn2c(-c3ccc4ccccc4c3)cnc2s1` [34(8), (2-Methoxy-ethyl)-(5-naphthalen-2-yl-imidazo[2,1-b][1,3,4]thiadiazol-2-yl)-amine], the inhibition at 10 µM came to 98%.

In the case of `Fc1ccc(-c2cnc3sc(-c4ccccc4)nn23)cc1` [Example 4, 5-(4-Fluorophenyl)-2-phenyl-imidazo[2,1-b][1,3,4]thiadiazole], the inhibition at 10 µM stood at 83%.

On to `CN(C)c1cccc(-c2cnc3sc(NCC4CCOCC4)nn23)c1` [34(16), [5-(3-Dimethylamino-phenyl)-imidazo[2,1-b][1,3,4]thiadiazol-2-yl]-(tetrahydro-pyran-4-ylmethyl)-amine], for which the inhibition at 10 µM is 99%.

For the compound `COCCNc1nn2c(-c3ccc(F)c(Cl)c3)cnc2s1` [34(14), [5-(3-Chloro-4-fluoro-phenyl)-imidazo[2,1-b][1,3,4]thiadiazol-2-yl]-(2-meth-oxyethyl)-amine], the inhibition at 10 µM amounted to 96%.

Regarding `Fc1ccc(CNc2nn3c(-c4cccnc4)cnc3s2)cc1` [34(57), (4-Fluoro-benzyl)-(5-pyridin-3-yl-imidazo[2,1-b][1,3,4]thiadiazol-2-yl)-amine], the inhibition at 10 µM amounted to 73%.

Turning to `c1ccc2cc(-c3cnc4sc(NCC5CC5)nn34)ccc2c1` [34(10), Cyclopropylmethyl-(5-naphthalen-2-yl-imidazo[2,1-b][1,3,4]thiadiazol-2-yl)-amine], the inhibition at 10 µM was found to be 77%.

Take `c1ccc(OCCNc2nn3c(-c4ccc5ccccc5c4)cnc3s2)cc1` [34(4), (5-Naphthalen-2-yl-imidazo[2,1-b][1,3,4]thiadiazol-2-yl)-(2-phenoxy-ethyl)-amine]: the inhibition at 10 µM was 71%.

For the compound `Clc1cccc(-c2cnc3sc(NCCc4ccccn4)nn23)c1` [34(5), [5-(3-Chloro-phenyl)-imidazo[2,1-b][1,3,4]thiadiazol-2-yl]-(2-pyridin-2-yl-ethyl)-amine], the inhibition at 10 µM was 98%.

As for `CC(=O)c1cccc(-c2cnc3sc(NCCN4CCOCC4)nn23)c1` [34(65), 1-{3-[2-(2-Morpholin-4-yl-ethylamino)-imidazo[2,1-b][1,3,4]thiadiazol-5-yl]-phenyl}-ethanone], the inhibition at 10 µM was 77%.
